Measurements: PubChem BioAssay (NCI)
Where “and” joins values, the source holds several entries; their conditions need not be identical. Identical values can stand only once.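 Protocol summary: plate cells (96-well), add compound at 5 concentrations, incubate 48 h, interpolate endpoints linearly. GI50 is the concentration that inhibits growth by half. TGI marks complete inhibition of growth.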

Assays:
Assay in all cases: inhibition of tumour cell growth, NCI panel, 48 h
BT-549 breast = tested on: BT-549 breast
MCF7 breast = tested on: MCF7 breast
MDA-MB-231 breast = tested on: MDA-MB-231 breast
MDA-MB-435 = tested on: MDA-MB-435
SNB-19 CNS = tested on: SNB-19 CNS
T-47D breast = tested on: T-47D breast
DMS 273 small cell lung = tested on: DMS 273 small cell lung
KM20L2 colon = tested on: KM20L2 colon
M19-MEL melanoma = tested on: M19-MEL melanoma
SNB-78 CNS = tested on: SNB-78 CNS

| Structure (SMILES) | GI50 (BT-549 breast) | TGI (BT-549 breast) | GI50 (MCF7 breast) | TGI (MCF7 breast) | GI50 (MDA-MB-231 breast) | TGI (MDA-MB-231 breast) | GI50 (MDA-MB-435) | TGI (MDA-MB-435) | GI50 (SNB-19 CNS) | TGI (SNB-19 CNS) | GI50 (T-47D breast) | TGI (T-47D breast) | TGI (DMS 273 small cell lung) | TGI (KM20L2 colon) | TGI (M19-MEL melanoma) | TGI (SNB-78 CNS) | GI50 (M19-MEL melanoma) | GI50 (SNB-78 CNS) |
| --- | --- | --- | --- | --- | --- | --- | --- | --- | --- | --- | --- | --- | --- | --- | --- | --- | --- | --- |
| Cc1cc2c(cc1Cl)SC1=NN(C)C(N(C)C)N1S2(=O)=O (stereo not drawn) | > 100 µM | > 100 µM | > 100 µM | > 100 µM | > 100 µM | > 100 µM | > 100 µM | > 100 µM | > 100 µM | > 100 µM | > 100 µM | > 100 µM |  |  |  |  |  |  |
| Cc1ccc(-c2cc(-c3ccccc3)c(C#N)c(=O)n2C2OC(CO)C(O)C(O)C2O)cc1 (stereo not drawn) |  |  |  |  |  |  |  |  |  | > 100 µM |  |  | > 100 µM | > 100 µM | > 100 µM | > 100 µM |  |  |
| Cc1ccc(-c2cc(-c3ccco3)c(C#N)c(=O)n2C2OC(OC(=O)c3ccccc3)C(OC(=O)c3ccccc3)C2OC(=O)c2ccccc2)cc1 (stereo not drawn) |  |  |  |  |  |  |  |  |  |  |  |  | > 100 µM | > 100 µM | > 100 µM | > 100 µM |  |  |
| N#CCCN(CCC#N)c1ccc(C(Sc2ccccc2)C(NC(=O)c2cc([N+](=O)[O-])ccc2Cl)C(=O)Sc2ccccc2)cc1 (stereo not drawn) |  |  |  |  |  |  |  |  | 3.98 µM | 18.6 µM |  |  | 5.15 µM | 6.47 µM and 11.3 µM | 11.9 µM | 34.5 µM | 2.95 µM | 2.97 µM |
| C[C@]12CCCC(=O)C1(O)C[C@H](C(=O)O)CC2 (stereo partly drawn) |  |  |  |  |  |  |  |  |  | > 100 µM |  |  | > 100 µM | > 100 µM | > 100 µM |  |  |  |
| CCOc1cc(/C=N\Nc2nnc(C)n2N)c(C)cc1N(CCCl)CCCl | 1.33 µM | 20.6 µM | 0.391 µM | > 25.7 µM | 1.39 µM | 6.29 µM | 0.5 µM | > 39.1 µM | 1.28 µM | > 45.7 µM | 0.46 µM | 14.3 µM |  |  |  |  |  |  |
| CCn1c(-c2nonc2N)nc2c(C#CC(C)(C)O)nc(OCCNC)cc21 | 7.17 µM | > 22.1 µM | 4.9 µM | > 25 µM | 8.9 µM | > 25 µM | 8.58 µM | > 25 µM | 8.4 µM | > 25 µM | 3.83 µM | > 25 µM |  |  |  |  |  |  |
| COc1ccc2[nH]c(O)c(C(=Nc3ccc(N(C)C(=O)CN4CCN(C)CC4)cc3)c3ccccc3)c2c1 | 1.55 µM | 3.19 µM | 0.725 µM | 3.62 µM | 1.88 µM | 5.17 µM | 1.29 µM | 11.3 µM | 3.72 µM | 10.7 µM | 3.54 µM | 15.9 µM |  |  |  |  |  |  |
| C=CC(=O)Nc1cc2c(Nc3ccc(F)c(Cl)c3)ncnc2cc1OCCCN1CCOCC1 | 2.04 µM and 2.57 µM | 5.7 µM and > 7.88 µM | 1.32 µM and 2.52 µM | 7.01 µM and > 10 µM | 1.74 µM and 2.32 µM | 4.71 µM and 9.93 µM | 2.67 µM and 4.1 µM | 12 µM and > 10 µM | 2.53 µM and > 6.7 µM | 14.7 µM and > 10 µM | 0.0677 µM and 0.182 µM | 18.7 µM and > 10 µM |  |  |  |  |  |  |
| Cc1ccc2nc(-c3ccc(N(C)C)c(Br)c3)cn2c1 | 63.3 µM | > 100 µM | 27.8 µM | > 100 µM | > 100 µM | > 100 µM | 22.6 µM | > 100 µM | 64.4 µM | > 100 µM | > 100 µM | > 100 µM |  |  |  |  |  |  |
| CCC[n+]1cc2cc(OC)c(OC)cc2c2c1-c1cc3c(cc1C2)OCO3 | 0.658 µM | 10.6 µM | 2.59 µM | > 33.8 µM | 4.71 µM | 15.4 µM | 3.29 µM | 12.4 µM | 0.254 µM | 1.68 µM | 0.583 µM | 3.92 µM |  |  |  |  |  |  |
| CN1C(=O)N(C)C2C1NN=c1s/c(=C\c3ccc(F)cc3)c(=O)n12 (stereo not drawn) | 13.1 µM | > 100 µM | 0.673 µM | > 100 µM | 4.69 µM | > 100 µM | 0.361 µM | 1.71 µM | 5.57 µM | > 100 µM | 1.25 µM | > 100 µM |  |  |  |  |  |  |
| Cc1[nH]nc(C(=O)n2nc(N)c3ccccc32)c1[N+](=O)[O-] | > 90.8 µM | > 100 µM | > 100 µM | > 100 µM | > 100 µM | > 100 µM | > 100 µM | > 100 µM | > 100 µM | > 100 µM | > 100 µM | > 100 µM |  |  |  |  |  |  |
| CN(C)CCCNC(=O)c1ccc2c(c1)oc1cc3ccccc3c(=O)n12 | 12.7 µM | 26.5 µM | 15 µM | 39.2 µM | 16.9 µM | > 50 µM | 19.1 µM | > 50 µM | > 50 µM | > 50 µM | 11.5 µM | 26.7 µM |  |  |  |  |  |  |
| Cc1cc2c(cc1C)N(C(=O)CCl)CCN2C(=O)CCl | 1.31 µM | 2.7 µM | 0.451 µM | 2.02 µM | 1.7 µM | 3.92 µM | 1.02 µM | 2.69 µM | 1.81 µM | 4.1 µM | 1.4 µM | 3.94 µM |  |  |  |  |  |  |
| C/C(CCc1ccccc1)=N\NC(N)=S |  |  |  |  |  |  |  |  |  |  |  |  | > 100 µM | > 100 µM | > 100 µM | > 100 µM |  |  |
| O=c1cccc(C2CC(CO)C3CCCCN3C2)[nH]1 (stereo not drawn) |  | > 100 µM |  | > 100 µM |  | > 100 µM |  | > 100 µM |  | > 100 µM |  | > 100 µM |  |  |  |  |  |  |
| Cc1sc2nc3c4ccccc4c(NCCCN(C)C)nn3c(=O)c2c1C | 11.7 µM | 26.9 µM | 1.43 µM | 5.63 µM | 2.15 µM | 7.53 µM | 1.79 µM | 3.74 µM | 15.9 µM | 29.5 µM | 12.7 µM | 26.1 µM |  |  |  |  |  |  |
| CCn1c2ccc(O)cc2c2c(C)c3c[n+](C)ccc3c(C)c21 | 1.55 µM | 8.29 µM | 2.65 µM | 23.4 µM | 9.58 µM | > 100 µM | 9.17 µM | 50.9 µM | 0.272 µM | 6.88 µM | 0.435 µM | 4.13 µM |  |  |  |  |  |  |
| CC(=O)NC(CCCCNC(=O)NCCCl)C(=O)NCc1ccccc1 (stereo not drawn) |  |  |  |  |  |  |  |  |  | > 100 µM |  |  | > 100 µM | > 100 µM | > 100 µM |  |  |  |
| COc1cc2ncnc(Nc3ccc(F)c(Cl)c3)c2cc1NC(=O)/C=C/CN1CCCCC1 | 2.49 µM and 2.56 µM | 8.32 µM and 9.98 µM | 2 µM and 2.03 µM | 6.32 µM and 6.56 µM | 1.3 µM and 1.53 µM | 3.2 µM and 4 µM | 1.6 µM and 1.46 µM | 3.42 µM and 2.95 µM | 2.04 µM and 1.86 µM | 17 µM and > 10 µM | 0.381 µM and 0.0625 µM | 3.67 µM and 4.9 µM |  |  |  |  |  |  |
